This is an account of results in ChEMBL document CHEMBL6103650, “Hybrid Molecules of Benzothiazole and Hydroxamic Acid as Dual-Acting Biofilm Inhibitors with Antibacterial Synergistic Effect against Pseudomonas aeruginosa Infections” (J Med Chem, 2025).

Activity calls are given as the source filed them. The rule behind the calls is not given here.

The subject of data set [1] is Pseudomonas aeruginosa. As to the kind of experiment: Antibiofilm activity against Pseudomonas aeruginosa PAO1 assessed as decrease in biofilm formation incubated for 24 hrs by crystal violet staining based analysis. Format: functional, organism-based. Particulars: dose 0.3125-10 µM.
Data set [2] has as its system Pseudomonas aeruginosa. The data set is described as follows: Antibiofilm activity against Pseudomonas aeruginosa PA1167 assessed as inhibition of biofilm formation incubated for 24 hrs by crystal violet staining based analysis. Format: functional, organism-based.
Data set [3] relates to Pseudomonas aeruginosa. The data set is described as follows: Antibiofilm activity against Pseudomonas aeruginosa PA108 assessed as inhibition of biofilm formation incubated for 24 hrs by crystal violet staining based analysis. Format: functional, organism-based.
The test system of data set [4] is Pseudomonas aeruginosa. The data set is described as follows: Antivirulence activity in Pseudomonas aeruginosa PAO1 assessed as reduction in extracellular polysaccharides production incubated for 24 hrs. Particulars: dose 0.3125-10 µM. The format is functional, organism-based.
A short description of data set [5]: Inhibition of quorum sensing system in Pseudomonas aeruginosa PAO1-gfp assessed as reduction in fluorescence intensity at 0.3125 to 10 uM measured upto 16 hrs by GFP reporter strain assay. Particulars: dose 0.3125-10 µM.
In data set [6] the test system is Pseudomonas aeruginosa. The data set is described as follows: Antibiofilm activity against Pseudomonas aeruginosa PAO1 assessed as reduction in iron content at 10 uM incubated for 24 hrs by cell total iron colorimetric assay relative to control. Format: functional. More on the design: scale not given: the % may be the effect or the level left.
Data set [7] has as its system Pseudomonas aeruginosa. As to the kind of experiment: Antibiofilm activity against Pseudomonas aeruginosa PAO1 harboring pvds-deficient mutant assessed as inhibition of biofilm formation at 0.3125 to 10 uM incubated for 24 hrs by crystal violet staining based analysis. Particulars: dose 0.3125-10 µM. The format is functional, organism-based.
Data set [8] concerns Pseudomonas aeruginosa. The data set is described as follows: Antibiofilm activity against Pseudomonas aeruginosa PAO1 overexpressing fpvA assessed as inhibition of biofilm formation at 0.3125 to 10 uM incubated for 24 hrs by crystal violet staining based analysis. The format is functional, organism-based. The note with it: dose 0.3125-10 µM.
Data set [9] deals with Pseudomonas aeruginosa. The data set is described as follows: Synergistic […] activity against Pseudomonas aeruginosa PAO1 assessed as fractional inhibitory concentration index measured for 20 hrs in presence of tobramycin by microdilution checkboard assay. The format is functional.
In data set [10] the test system is Pseudomonas aeruginosa. As to the kind of experiment: Antibacterial activity against Pseudomonas aeruginosa PAO1 infected in BALB/c mouse wound infection model assessed as reduction in wound area at 2.5 uM administered to wound once a day for 3 days and measured after 9 days in dropwise manner in presence of Tob. The note with it: time 12 day. More on the design: scale not given: the % may be the effect or the level left. The format is functional.

Data set [11] can be described thus: Toxicity in BALB/c mouse assessed as spleen damage by H and E staining based analysis. The format is tissue-based. Particulars: in vivo.
The test system of data set [12] is Pseudomonas aeruginosa. The data set is described as follows: Antibacterial activity against Pseudomonas aeruginosa PAO1 infected in BALB/c mouse wound infection model assessed as bacterial survival rate in wound at 2.5 uM administered to wound once a day for 3 days in dropwise manner in presence of ciprofloxacin. The format is functional. Particulars: PAO1, 72 h, time 3 day.

Data set [13] can be described thus: Toxicity in BALB/c mouse wound infection model assessed as change in body weight measured for 9 days. The note with it: in vivo, 216 h, time 9 day.
The nature of data set [14]: Toxicity in BALB/c mouse wound infection model assessed as spleen damage measured for 9 days by H and E staining based analysis. Format: tissue-based. Particulars: in vivo, 216 h, time 9 day.
The nature of data set [15]: Toxicity in BALB/c mouse wound infection model assessed as kidney damage measured for 9 days by H and E staining based analysis. Format: tissue-based. The note with it: in vivo, 216 h, time 9 day.

Consider `COc1ccc2nc(NCC(=O)NCCCCC(=O)NO)sc2c1`, for which the Activity result in [1] is “Dose-dependent-effect”; in [4] it was “Dose-dependent-effect”; in data set [6] it was 57%; in data set [7] it was “No effect”; in [8], “No effect”; in [10] it was 35%. The Activity result in [11], in data set [13], in data set [14] and in data set [15] was “Non-toxic” in each case. The result in data set [2] and in data set [3] was Active. In addition, the inhibition result in data set [5] was “inactive”. In addition, the “fractional inhibitory concentration index (FICI)” value in data set [9] is 0.29. Moreover, the survival at 2.5 µM in data set [12] came to 0.45%.
